Patent US12692251B2, “Pralsetinib pharmaceutical compositions” (Rigel Pharmaceuticals, Inc., priority 2020, dated 2026)

Legend:
[1] = Dynamic Vapor Sorption (DVS); type: physicochemical; conditions: for total mass change by DVS: between 2% and 95% relative humidity
Procedure: Dynamic Vapor Sorption (DVS) was done using a DVS Intrinsic 1. The sample is loaded into a sample pan and suspended from a microbalance. A typical sample mass for DVS measurement is 25 mg. Nitrogen gas bubbled through distilled water provides the desired relative humidity. A typical measurement comprises the steps: • 1—Equilibrate at 50% RH • 2—50% to 2%. (50%, 40%, 30%, 20%, 10% and 2%) • a. Hold minimum of 5 mins and maximum of 60 minutes at each humidity. The pass criteria is less than 0.002% change • 3 —2% to 95% (2%, 10%, 20%, 30%, 40%, 50%, 60%, 70%, 80%, 90%, 95%) • a. Hold minimum of 5 mins and maximum of 60 minutes at each humidity. The pass criteria is less than 0.002% change • 4—95% to 2% (95%, 80%, 70%, 60%, 50%, 40%, 30%, 20%, 10%, 2%) • a. Hold minimum of 5 mins and maximum of 60 minutes at each humidity. The pass criteria is less than 0.002% change • 5—2% to 50% (2%, 10%, 20%, 30%, 40%, 50%) • a. Hold minimum of 5 mins and maximum of 60 minutes at each humidity. The pass criteria is less than 0.002% change

[2] = Solubility of pralsetinib and its solid forms; type: physicochemical; conditions: for solubility in simulated gastric fluid: simulated gastric fluid (possibly due to conversion to HCl salt)
[3] = Competitive slurry experiments; type: physicochemical
[4] = Solid form stability to humidity and drying; type: physicochemical; conditions: for stability to drying: 50° C. (under vacuum) where stated
Procedure: In one aspect, the present disclosure provides a process for preparing crystalline Form A, Form B or Form C. In a particular aspect, Form A can be obtained by slurrying in alcohols, acetone, and acetonitrile or Form A was prepared by evaporative crystallization in multiple solvents and cooling crystallization in isopropanol and 1-propanol. Form A can also be produced by recrystallization in acetone:water. Form C can be obtained by recrystallizing Compound (I) in various water containing solvent systems (acetone:water, methanol:water, isopropanol:water, dimethylacetamide:water, tetrahydrofuran:water). Form C was stable drying at 50° C. under vacuum, and converted to Form B (anhydrous) upon heating to 150° C. […] Form C was not as hygroscopic as Form A during the dynamic vapor sorption measurements, gaining only 1.44% water.

[5] = Accelerated stability for 4 weeks at 40° C./75% RH; type: physicochemical; conditions: Compositions 1-3
Procedure: The manufacturing process for the Compositions 1-3 are as follows: • 1) Intragranular components were blended in a suitably sized contained using the Turbula blender for 3 minutes at 23 rpm • 2) Intragranular blend was dry granulated by densification using a Riva minipress fitted with 22×9 mm caplet tooling • 3) Resultant material was milled using a Comil 193 fitted with 991 μm screen 4) Granule bulk density was determined and if not within 0.55-0.6 g/mL, densification and milling repeated until the desired bulk density was achieved • 5) Extragranular components were blend with the granules in a Turbula blender for 2 minutes at 23 rpm • 6) Final blend was hand filled in to Size 0 HPMC Capsules (Vcaps® Plus) • 7) Capsules were packed into 60 mL HDPE bottles with 4 g desiccant cap at a count of 30 capsules per bottle • 8) Packed product was placed on accelerated stability for 4 weeks at 40° C./75% RH

VEGFR2 = conditions: in vivo; cited from earlier work
[6] = test system: NSCLC and thyroid cancer xenografts driven by various RET mutations and fusions; conditions: in vivo; cited from earlier work

CO[C@]1(C(=O)N[C@@H](C)c2ccc(-n3cc(F)cn3)nc2)CC[C@H](c2nc(C)cc(Nc3cc(C)[nH]n3)n2)CC1 [Form A, (cis)-N—((S)-1-(6-(4-fluoro-1H-pyrazol-1-yl)pyridin-3-yl)ethyl)-1-methoxy-4-(4 methyl-6-(5-methyl-1H-pyrazol-3-ylamino)pyrimidin-2-yl)cyclohexanecarboxamide]
reversible mass change by DVS ([1]; between 2-95% relative humidity): about 10% | solubility in simulated gastric fluid [2]: high solubility | solubility in simulated intestinal fluid [2]: low solubility | solubility in water [2]: low solubility | form conversion in competitive slurry, methanol:water ([3]; methanol:water at high ratios of water to methanol and lower temperatures): converted to Form C | conversion on prolonged humidity exposure ([4]; prolonged humidity exposure): did not convert to Form C

CO[C@]1(C(=O)N[C@@H](C)c2ccc(-n3cc(F)cn3)nc2)CC[C@H](c2nc(C)cc(Nc3cc(C)[nH]n3)n2)CC1 [Form B, (cis)-N—((S)-1-(6-(4-fluoro-1H-pyrazol-1-yl)pyridin-3-yl)ethyl)-1-methoxy-4-(4 methyl-6-(5-methyl-1H-pyrazol-3-ylamino)pyrimidin-2-yl)cyclohexanecarboxamide]
total mass change by DVS [1]: 1.4 wt. %

CO[C@]1(C(=O)N[C@@H](C)c2ccc(-n3cc(F)cn3)nc2)CC[C@H](c2nc(C)cc(Nc3cc(C)[nH]n3)n2)CC1 [Form C, (cis)-N—((S)-1-(6-(4-fluoro-1H-pyrazol-1-yl)pyridin-3-yl)ethyl)-1-methoxy-4-(4 methyl-6-(5-methyl-1H-pyrazol-3-ylamino)pyrimidin-2-yl)cyclohexanecarboxamide]
water gained during dynamic vapor sorption measurements [1]: 1.44% | total mass change by DVS [1]: 1.4 wt. % | solubility in simulated gastric fluid [2]: high solubility | solubility in simulated intestinal fluid [2]: lower solubility than Form A | solubility in water [2]: lower solubility than Form A | form conversion in competitive slurry, acetone and isopropanol ([3]; acetone and isopropanol): converted to Form A | stability by X-ray powder diffraction during humidity testing ([4]; 75% relative humidity and 40° C. for one week, and cycling down to 2% relative humidity by DVS): remained stable

COC1(C(=O)NC(C)c2ccc(-n3cc(F)cn3)nc2)CCC(c2nc(C)cc(Nc3cc(C)[nH]n3)n2)CC1.Cl (centres unmarked) [Form III]
behaviour at elevated humidity / humidification [4]: stable to humidification

CO[C@]1(C(=O)N[C@@H](C)c2ccc(-n3cc(F)cn3)nc2)CC[C@H](c2nc(C)cc(Nc3cc(C)[nH]n3)n2)CC1.Cl [Form II]
stability to drying [4]: converted to Form III

COC1(C(=O)NC(C)c2ccc(-n3cc(F)cn3)nc2)CCC(c2nc(C)cc(Nc3cc(C)[nH]n3)n2)CC1.Cl (centres unmarked) [Form I]
stability to drying [4]: stable to drying | behaviour at elevated humidity / humidification [4]: deliquesced

CO[C@]1(C(=O)N[C@@H](C)c2ccc(-n3cc(F)cn3)nc2)CC[C@H](c2nc(C)cc(Nc3cc(C)[nH]n3)n2)CC1 [pralsetinib, (cis)-N—((S)-1-(6-(4-fluoro-1H-pyrazol-1-yl)pyridin-3-yl)ethyl)-1-methoxy-4-(4 methyl-6-(5-methyl-1H-pyrazol-3-ylamino)pyrimidin-2-yl)cyclohexanecarboxamide]
physical form by XRPD after storage [5]: remains as an amorphous solid dispersion | aqueous solubility [2]: low aqueous solubility | solubility in acidic pH ([2]; acidic pH (pH 1.2 medium)): relatively high solubility | inhibition of VEGFR2 (VEGFR2): without inhibiting | growth of xenografts [6]: potently inhibits growth
